The results in this text go back to patent publication US8940304B2, “Monoclonal antibodies against the PBP2-A protein and homologous sequences for the treatment of infections by and immunodiagnostics of bacteria of the firmicutes phylum” (priority 2009, dated 2015).

The test system of test [1] is CEB MRSA. The test can be described thus: Comparative in vivo protection antibody versus vancomycin, renal quantification, Assay II. Further details: species or system Staphylococcus aureus. Conditions: antibody 500 μg. The protocol: This assay was performed in the same way as the previous one, but, with a lower infective dose (7.0×10^6 bacteria), with the group 1 being treated with 500 micrograms of purified monoclonal antibody; group 2 being treated with vancomycin (150 micrograms, intramuscular route, 12/12 hours; 5 doses); group 3 being treated with vancomycin+500 micrograms of monoclonal antibody; and group 4 being control (non-treated animals).

Test [2] concerns CEB-MRSA. The test can be described thus: Comparative in vivo protection antibody versus vancomycin, renal quantification, Assay I. Further details: species or system Staphylococcus aureus.
Protocol: Four groups of female 8-week Balb/C mice (4 animals per group) received an infective dose of 6.0×10^7 bacteria (CEB-MRSA) by intraperitoneal route. The animals received doses of purified monoclonal antibody (MAB), vancomycin, MAB+vancomycin, and negative control, according to the groups below:
group 1: MAB (400 micrograms) (first day)
group 2: vancomycin (150 micrograms, intramuscular route, 12/12 hours)
group 3: vancomycin+MAB (350 micrograms) (1 day after infection)
The first doses of antibody and vancomycin were administered 4 hours after the administration of the infective dose. The animals were subjected to euthanasia in the fourth day, and the kidneys were aseptically removed and subjected to renal qualification, according to what was previously described.
In this study, the animals were infected and the administration of the antimicrobial or monoclonal antibodies was started just after four hours of infection. The study was conducted with three distinct groups: one treated with vancomycin, other treated with monoclonal antibodies, and a third one with simultaneous administration of antimicrobial+antibodies. Vancomycin doses were adjusted and administered in a way similar to the cases of infections in humans (500 mg every 12 hours).

In the case of `CN[C@H](CC(C)C)C(=O)N[C@H]1C(=O)N[C@@H](CC(N)=O)C(=O)N[C@H]2C(=O)N[C@H]3C(=O)N[C@H](C(=O)N[C@H](C(=O)O)c4cc(O)cc(O)c4-c4cc3ccc4O)[C@H](O)c3ccc(c(Cl)c3)Oc3cc2cc(c3O[C@@H]2O[C@H](CO)[C@@H](O)[C@H](O)[C@H]2O[C@H]2C[C@](C)(N)[C@H](O)[C@H](C)O2)Oc2ccc(cc2Cl)[C@H]1O` [vancomycin], the “bacteria recovered from kidneys, mean of group” value in test [1] (Assay II: 7.0×10^6 bacteria CEB MRSA, vancomycin every 12 hours (5 doses), antibody (500 μg)+vancomycin) is reported as 720 bacteria; in test [2] (Assay I: 6.0×10^7 bacteria CEB MRSA, antibody 400 μg, vancomycin 5 doses, antibody (300 μg)+vancomycin) it was 172,250 bacteria. Also, the “reduction of bacteria in kidneys versus non-treated animals” value in test [1] (Assay II: lower infective dose 7.0×10^6 bacteria CEB MRSA, vancomycin 5 doses, combination) was found to be 35 times. The “reduction in the quantity of bacteria present in the kidneys versus non-treated animals” value in test [2] (Assay I: 6.0×10^7 bacteria CEB MRSA IP, treatment from 4 hours after infection, three days after infection, vancomycin every 12 hours (5 doses)) is listed as “around 15 times”.
